Measurements as given in paper PMC8394356 (Biomedicines, 2021).
Structures can show the parent of a compound that is named as a salt. Where two headings read alike, the source gives them in different places.

What was measured:
[1] = system: scopolamine-induced amnesiac ICR mice; experiment: Passive avoidance test in scopolamine-induced amnesiac ICR mice; type: in vivo; conditions: scopolamine 1 mg/kg i.p.
Procedure: The oral administration of TT-hull extracts or purified compounds in scopolamine-induced amnesiac ICR mice was performed according to the previous report, with some modifications. The 8-week-old male ICR mice were purchased from the Laboratory Animal Center, College of Medicine, National Taiwan University (Taipei, Taiwan). Normal diets (Prolab® RMH2500, Jefferson City, MO, USA) and water were provided during the animal experiments. All animal experimental protocols were approved by the Institutional Animal Care and Use Committee of Taipei Medical University (LAC-2016-0275). After one week of acclimation, for treatments of TT-hull extracts to test prevention, the mice were randomly divided into seven groups (6 heads/group), including the blank, the control, the donepezil-positive control, and the four extract-administered groups. […] Except for the blank group, the mice in each group were intraperitoneally injected with scopolamine (1 mg/kg) 30 min after the oral sample administration, and the mice in the blank group were injected with an equal volume of PBS. After being injected with scopolamine or PBS for another 30 min, each mouse was evaluated by a passive avoidance test at day 13 to day 14 and by the Morris water maze from day 17 to day 19. At the end of the experiments at day 20, the mice were sacrificed. For oral administration of purified compounds to test prevention, the ICR mice were pre-administered orally with TT-1 (100 mg/kg, 200 mg/kg) or TT-2 (300 mg/kg) once a day by gavage from day 1 to day 5; […]. From day 6 to day 11, the procedure was the same for the oral administration of the TT-hull extracts. Each mouse was evaluated by a passive avoidance test at day 6 to day 7 and by the Morris water maze from day 8 to day 10. […]
The passive avoidance test and Morris water maze were used to evaluate the learning and memory functions of scopolamine-treated mice after the treatments with TT-hull extracts or purified compounds, by following the previous report. […] The time for which each mouse stayed in the light box (step-through latency of the acquisition trial, sec) was recorded. […] On the second day of the passive avoidance test (as the retention trial), the same protocol was performed, except that there were no electric foot shocks in the dark box, and the time for which each mouse stayed in the light box (step-through latency of the retention trial) was recorded. […] For the second training procedure of the third day (as the reference memory task), the time required for the mouse to find and climb onto the platform from the starting point was recorded as the latency (sec). The platform was then removed (as the probe test), and the swimming time and crossing time in the platform quadrant were recorded for each mouse.

[2] = system: scopolamine-induced amnesiac ICR mice; experiment: Morris water maze in scopolamine-induced amnesiac ICR mice; type: in vivo; conditions: donepezil 5 mg/kg, scopolamine 1 mg/kg i.p.
Procedure: The oral administration of TT-hull extracts or purified compounds in scopolamine-induced amnesiac ICR mice was performed according to the previous report, with some modifications. The 8-week-old male ICR mice were purchased from the Laboratory Animal Center, College of Medicine, National Taiwan University (Taipei, Taiwan). Normal diets (Prolab® RMH2500, Jefferson City, MO, USA) and water were provided during the animal experiments. All animal experimental protocols were approved by the Institutional Animal Care and Use Committee of Taipei Medical University (LAC-2016-0275). After one week of acclimation, for treatments of TT-hull extracts to test prevention, the mice were randomly divided into seven groups (6 heads/group), including the blank, the control, the donepezil-positive control, and the four extract-administered groups. […] Except for the blank group, the mice in each group were intraperitoneally injected with scopolamine (1 mg/kg) 30 min after the oral sample administration, and the mice in the blank group were injected with an equal volume of PBS. After being injected with scopolamine or PBS for another 30 min, each mouse was evaluated by a passive avoidance test at day 13 to day 14 and by the Morris water maze from day 17 to day 19. At the end of the experiments at day 20, the mice were sacrificed. For oral administration of purified compounds to test prevention, the ICR mice were pre-administered orally with TT-1 (100 mg/kg, 200 mg/kg) or TT-2 (300 mg/kg) once a day by gavage from day 1 to day 5; […]. From day 6 to day 11, the procedure was the same for the oral administration of the TT-hull extracts. Each mouse was evaluated by a passive avoidance test at day 6 to day 7 and by the Morris water maze from day 8 to day 10. At the end of the experiments at day 11, the mice were sacrificed, and the brain tissue was isolated and stored at −80 °C for further measurements.
The passive avoidance test and Morris water maze were used to evaluate the learning and memory functions of scopolamine-treated mice after the treatments with TT-hull extracts or purified compounds, by following the previous report. The apparatus of the passive avoidance test included a light box and a dark box separated by a guillotine door in a shuttle chamber (AccuScan Instruments Inc, Columbus, OH, USA), and a wired metal floor was placed in the dark box to provide electric foot shocks during the acquisition trial. On the first day of the passive avoidance test (as the acquisition trial), each mouse was acclimatized to the shuttle chamber for 30 min, and then placed in the light box. The mouse entered the dark box, the guillotine door was immediately closed, and, at the same time, an electric shock (0.3 mA) was delivered for 3 sec to the mouse via the wired metal floor. The time for which each mouse stayed in the light box (step-through latency of the acquisition trial, sec) was recorded. […] On the second day of the passive avoidance test (as the retention trial), the same protocol was performed, except that there were no electric foot shocks in the dark box, and the time for which each mouse stayed in the light box (step-through latency of the retention trial) was recorded. For the Morris water maze evaluations, a three-successive-day training protocol was performed; each mouse was trained for 1 min to find and climb onto the platform twice a day at 30 min intervals. For the second training procedure of the third day (as the reference memory task), the time required for the mouse to find and climb onto the platform from the starting point was recorded as the latency (sec). The platform was then removed (as the probe test), and the swimming time and crossing time in the platform quadrant were recorded for each mouse.

[3] = Oxygen radical absorbance capacity (ORAC), OxiSelect Assay Kit; conditions: for ORAC activities relative to those of Trolox: % of Trolox; for ORAC values: compound at a concentration of 10 μM
Procedure: The antioxidant index of free radical scavenging activities of the extracts (1.5 or 2.5 μg/mL) and purified compounds (10 μM) of TT-hull were determined by a commercial OxiSelect™ Assay Kit for oxygen radical absorbance capacity (ORAC) determination. The standard curve of ORAC was plotted using different concentrations of water-soluble vitamin E analog (the compound’s name was Trolox, 6-hydroxy-2,5,7,8-tetramethylchroman-2-carboxylic acid) at 2.5, 5, 10, 20, 40, and 60 μM. Therefore, the ORAC activities of TT-hull extracts or purified compounds were calculated equivalently to the Trolox effects and expressed as Trolox equivalents (μM).

[4] = cited from earlier work
[5] = biological target: T1, AChE activity in brain extracts (Mus musculus, UniProt P21836); type: in vivo; conditions: oral TT-1 200 mg/kg, donepezil 5 mg/kg; scopolamine-induced amnesiac mice
T1 construct: from tissue; host or cells: whole brain of ICR mice
Procedure: (§1) At the end of the TT-1 and TT-2 treatments, mice were sacrificed, and the whole brain of each ICR mouse was isolated and immediately stored at −80 °C for the measurement of residual AChE activity and the reduced GSH levels. The whole brain of each mouse was ground into powder by means of a mortar and pestle in liquid nitrogen and then extracted by adding 1 mL of 100 mM phosphate buffer (pH 7.5) to the ice bath. […] The residual AChE activity of each brain extract was expressed as [A405sample−A405sample blank]/μg protein.

recombinant human AChE = biological target: T2, recombinant human AChE (Homo sapiens, UniProt P22303); experiment: biochemical; conditions: isolated compounds from TT-hull-50EE, recombinant human AChE
T2 construct: purchased R&D Systems Inc. 7574-CE
Procedure: The acetylthiocholine iodide and DTNB were used for in vitro AChE inhibitory activity assays following the previous report. […] An equal volume of DMSO instead of the sample solution was used as a blank and expressed as 100% AChE activity. The absorbance changes were recorded at 405 nm for 10 min. The AChE inhibition (%) was calculated as follows: [(A405blank−A405sample)/(A405blank)] × 100%.

[6] = system: reduced form GSH contents in brain extracts; experiment: Reduced GSH levels in brain tissue extracts of treated mice; type: in vivo; conditions: oral TT-1 200 mg/kg, donepezil 5 mg/kg; scopolamine-induced amnesiac mice
Procedure: as §1

Aβ (1-42) peptide = biological target: T3, Aβ (1-42) peptide (Homo sapiens, UniProt P05067); experiment: Inhibition of Aβ (1-42) aggregation in vitro (ThT fluorescent assay); type: biochemical; conditions: for inhibition at 10 µM: read-out: inhibition of Aβ aggregation
T3 construct: the synthetic Aβ (1-42) peptide was weighed in an Eppendorf tube; purchased Kelowna International Scientific Inc; host or cells: synthetic peptide
Procedure: The ThT fluorescent assay was used to monitor the isolated compounds from the TT-hull on inhibition of Aβ (1-42) peptide aggregations. For the preparation of the Aβ stock film, the synthetic Aβ (1-42) peptide was weighed in an Eppendorf tube and dissolved in HFIP to prepare a 1 mM stock solution; then, HFIP solvent was evaporated to form the Aβ (1-42) film. The stock film was dissolved in 100 μL of 60 mM NaOH, and further diluted with 50 mM phosphate buffer (pH7.4, containing 150 mM sodium chloride, 1 mM EDTA, and 0.02% sodium azide). The 125 μL working solution contained 10 μM Aβ (1-42) peptide, purified compounds (10, 20, and 40 μM in DMSO), and 10 μM ThT solution, which was gently shaken at 37 °C for 24 h. The mixture without the sample additions was the control. The fluorescence ratios of Ex440nm/Em486nm were recorded at a time of 0 h and 24 h, and changes in fluorescence over a 24 h period were expressed as ΔE. The inhibition of Aβ aggregation (%) was calculated as [(ΔEcontrol−ΔEsample)/(ΔEcontrol)] × 100%.

[7] = purified compound experiment, oral TT-1 100 and 200 mg/kg, TT-2 300 mg/kg, donepezil 5 mg/kg
[8] = extract experiment, oral 50EE or HWE 100 and 200 mg/kg
[9] = purified compound experiment, oral TT-1 200 mg/kg
[10] = 1:1 ratio of Aβ to compound, 10 μM:10 μM, 37 °C, 24 h
[11] = 1:2 ratio of Aβ to compound, 10 μM to 20 μM, 37 °C, 24 h
[12] = 1:4 ratio of Aβ to compound, 10 μM to 40 μM, 37 °C, 24 h
[13] = read-out: IC50 of AChE inhibitory activity

T3 sequence (P05067 672-713): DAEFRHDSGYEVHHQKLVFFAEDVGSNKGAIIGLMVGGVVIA
T2 sequence (P22303 32-614): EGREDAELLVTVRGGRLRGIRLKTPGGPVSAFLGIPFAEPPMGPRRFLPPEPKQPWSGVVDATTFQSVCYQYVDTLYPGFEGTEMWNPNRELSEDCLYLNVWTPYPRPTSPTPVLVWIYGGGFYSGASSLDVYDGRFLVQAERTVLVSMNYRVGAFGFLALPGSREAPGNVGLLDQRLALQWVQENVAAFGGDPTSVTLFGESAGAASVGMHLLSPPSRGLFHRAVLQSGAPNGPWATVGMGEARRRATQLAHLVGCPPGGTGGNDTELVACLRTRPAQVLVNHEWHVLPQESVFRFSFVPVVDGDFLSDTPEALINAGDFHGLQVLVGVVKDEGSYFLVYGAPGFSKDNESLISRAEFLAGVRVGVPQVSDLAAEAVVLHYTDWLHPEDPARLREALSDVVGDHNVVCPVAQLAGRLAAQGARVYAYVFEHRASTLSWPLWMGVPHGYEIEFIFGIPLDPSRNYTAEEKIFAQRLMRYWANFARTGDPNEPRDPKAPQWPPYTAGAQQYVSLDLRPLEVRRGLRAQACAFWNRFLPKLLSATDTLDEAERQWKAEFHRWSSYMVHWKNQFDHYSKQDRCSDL
T1 sequence (P21836 32-614): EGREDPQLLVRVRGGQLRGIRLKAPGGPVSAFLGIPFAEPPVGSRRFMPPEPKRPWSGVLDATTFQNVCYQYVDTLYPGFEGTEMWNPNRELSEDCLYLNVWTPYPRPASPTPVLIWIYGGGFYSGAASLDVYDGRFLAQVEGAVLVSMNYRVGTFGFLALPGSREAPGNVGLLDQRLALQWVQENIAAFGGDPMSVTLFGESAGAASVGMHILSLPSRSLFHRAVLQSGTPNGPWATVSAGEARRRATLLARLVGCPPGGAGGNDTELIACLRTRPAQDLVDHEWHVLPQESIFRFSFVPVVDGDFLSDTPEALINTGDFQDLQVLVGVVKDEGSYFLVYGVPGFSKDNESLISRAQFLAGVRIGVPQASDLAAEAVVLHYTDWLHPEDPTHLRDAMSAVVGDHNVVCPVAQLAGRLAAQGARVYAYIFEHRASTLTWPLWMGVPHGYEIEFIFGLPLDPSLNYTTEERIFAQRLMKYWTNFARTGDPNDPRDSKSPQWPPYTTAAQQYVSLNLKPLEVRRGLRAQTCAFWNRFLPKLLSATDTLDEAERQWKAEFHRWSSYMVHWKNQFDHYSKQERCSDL

SMILES	step-through latency in the retention trial vs control ([1]; extract experiment, oral 50EE or HWE 100 and 200 mg/kg daily day 1-20, donepezil 5 mg/kg day 11-20)	step-through latency in the retention trial vs control [1, 7]	crossing numbers in the target quadrant, probe test, vs control [2, 8]	time spent in the target quadrant, probe test, vs control [2, 8]	crossing numbers in the target quadrant, probe test, vs control [2, 9]	time spent in the target quadrant, probe test, vs control [2, 9]	ORAC activities relative to those of Trolox ([3]; compound at 10 μM)	ORAC values [3]	remaining contents ([4]; acidic buffers (pH 2 or pH 4) and simulated gastric fluids (pH 1.2))	residual content ([4]; simulated intestinal fluids (pH 7.5) at 37 °C for 9 h)	AChE activity in brain extracts vs control [5]	IC50 (recombinant human AChE; IC50 of AChE inhibitory activity)	reduced form GSH contents in brain extracts vs control [6]	inhibition at 10 µM (Aβ (1-42) peptide; [10])	inhibition of Aβ aggregation (Aβ (1-42) peptide; [11])	inhibition of Aβ aggregation (Aβ (1-42) peptide; [12])	IC50 (recombinant human AChE; [13])	inhibition at 10 µM (Aβ (1-42) peptide)	ORAC activities, fold higher than those of Trolox ([3]; compound at 10 μM)
COc1cc2c(cc1OC)C(=O)C(CC1CCN(Cc3ccccc3)CC1)C2 (stereo not shown) [donepezil, donepezil hydrochloride]	remained for a longer period of time in the light box	showed longer step-through latency	higher crossing numbers in the target quadrant	spent more time in the target quadrant	higher crossing numbers in the target quadrant	longer time spent in the target quadrant	–	–	–	–	–	–	–	–	–	–	–	–	–
O=C(OC1O[C@@H]2COC(=O)c3cc(O)c(O)c(O)c3-c3c(cc(O)c(O)c3O)C(=O)O[C@H]2[C@H](OC(=O)c2cc(O)c(O)c(O)c2)[C@H]1OC(=O)c1cc(O)c(O)c(O)c1)c1cc(O)c(O)c(O)c1 (stereo partly shown) [TT-1, Tellimagrandin II]	–	showed longer step-through latency	–	–	higher crossing numbers in the target quadrant	longer time spent in the target quadrant	50%	5.1 μM Trolox equivalents	higher than 90%	31.40%	lower AChE activity	18.6 µM	higher reduced form GSH contents	75.8%	100%	100%	–	–	–
O=C(O[C@H]1[C@@H]2OC(=O)c3cc(O)c(O)c(O)c3-c3c(cc(O)c(O)c3O)C(=O)OC[C@H]2OC(O)[C@@H]1OC(=O)c1cc(O)c(O)c(O)c1)c1cc(O)c(O)c(O)c1 (stereo partly shown) [TT-8, tellimagrandin I]	–	–	–	–	–	–	75%	7.5 μM Trolox equivalents	–	–	–	–	–	–	97.13%	100%	18.4 µM	66.6%	–
O=C(OC[C@H]1O[C@@H](OC(=O)c2cc(O)c(O)c(O)c2)[C@H](OC(=O)c2cc(O)c(O)c(O)c2)[C@@H](OC(=O)c2cc(O)c(O)c(O)c2)[C@@H]1O)c1cc(O)c(O)c(O)c1 [TT-2, 1,2,3,6-tetra-O-galloyl-β-D-glucopyranoside]	–	no significant differences (p > 0.05)	–	–	–	–	–	18.7 μM Trolox equivalents	–	–	–	–	–	58.5%	88.08%	–	84.2 µM	–	close to two-fold higher
